34 compounds from patent US6211244A, “Calcium receptor-active compounds” (priority 1995, dated 2001) can be followed below.

This assay deals with T1, human calcium receptor (Homo sapiens, UniProt P41180, R990G).
T1 construct: expressed in transfected cells; host or cells: HEK 293
T1 sequence (P41180 20-1078 R990G): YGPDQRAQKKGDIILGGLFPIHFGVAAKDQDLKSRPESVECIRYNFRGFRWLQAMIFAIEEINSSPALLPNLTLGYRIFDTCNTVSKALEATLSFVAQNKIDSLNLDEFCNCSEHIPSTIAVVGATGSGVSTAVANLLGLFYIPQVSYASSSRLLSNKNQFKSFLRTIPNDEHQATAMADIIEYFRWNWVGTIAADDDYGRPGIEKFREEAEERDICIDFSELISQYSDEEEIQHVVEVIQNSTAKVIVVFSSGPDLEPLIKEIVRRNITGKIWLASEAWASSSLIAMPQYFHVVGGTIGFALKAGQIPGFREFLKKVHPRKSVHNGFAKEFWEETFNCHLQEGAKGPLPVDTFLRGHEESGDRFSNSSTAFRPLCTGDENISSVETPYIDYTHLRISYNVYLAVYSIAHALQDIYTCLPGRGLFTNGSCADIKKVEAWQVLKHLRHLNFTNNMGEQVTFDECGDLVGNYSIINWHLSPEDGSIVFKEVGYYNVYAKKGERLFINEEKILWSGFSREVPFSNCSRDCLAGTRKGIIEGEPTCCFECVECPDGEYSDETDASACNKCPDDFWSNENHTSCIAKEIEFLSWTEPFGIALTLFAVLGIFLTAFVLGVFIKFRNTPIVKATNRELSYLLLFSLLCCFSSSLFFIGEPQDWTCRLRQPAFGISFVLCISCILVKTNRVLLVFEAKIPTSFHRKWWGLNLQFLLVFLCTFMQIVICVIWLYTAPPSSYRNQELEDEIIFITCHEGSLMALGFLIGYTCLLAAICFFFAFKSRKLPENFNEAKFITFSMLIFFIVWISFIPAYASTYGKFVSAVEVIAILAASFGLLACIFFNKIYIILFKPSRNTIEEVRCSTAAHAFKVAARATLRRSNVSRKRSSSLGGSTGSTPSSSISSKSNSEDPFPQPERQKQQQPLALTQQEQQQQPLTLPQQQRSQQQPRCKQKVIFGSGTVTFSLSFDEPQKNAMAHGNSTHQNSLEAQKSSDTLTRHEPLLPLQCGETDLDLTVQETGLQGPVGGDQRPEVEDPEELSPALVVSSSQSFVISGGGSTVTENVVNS
Kind of assay: increases in [Ca^2+ ]i in HEK-293 cells expressing the human calcium receptor (fura-2 loaded HEK 293/pHuPCaR4.0 cells), % activity. The class given is cell-based. The note with it: for activity at […]: HEK293.

As to `COc1ccc(CNC(C)c2ccccc2C(F)(F)F)cc1C` (centres unmarked) [Compound 24B], the “% activity” value runs as follows: (33 ng/mL) 34%; (330 ng/mL) 61%; (3300 ng/mL) 76%.
In the same order, the values of `COc1ccc(CNC(C)c2cccc(C(F)(F)F)c2)cc1C` (centres unmarked) [Compound 24C] are 87%, 113% and 116%.
In the same order, the values of `COc1ccc(CNC(C)c2ccc(C(F)(F)F)cc2)cc1C` (centres unmarked) [Compound 24D] are 34%, 53% and 87%.
In the same order, the values of `COc1ccc(CNC(C)c2cccc(C#N)c2)cc1C` (centres unmarked) [Compound 24E] are 35%, 71% and 94%.
Take `COc1ccc(CNC(C)c2ccc(C)c(C)c2)cc1C` (centres unmarked) [Compound 24G]: the “% activity” value reads like this: (33 ng/mL) 75%; (330 ng/mL) 94%; (3300 ng/mL) 109%.
In the same order, the values of `COc1ccc(CNC(C)c2ccc(F)c(F)c2)cc1C` (centres unmarked) [Compound 24I] are 55%, 84% and 109%.
As to `C[C@@H](NCCCc1cccc(OC(F)(F)F)c1)c1cccc2ccccc12` [Compound 24J], the “% activity” value was 75% (33 ng/mL) and 103% (330 ng/mL).
`COc1cccc([C@@H](C)NCCCc2cc(F)ccc2F)c1` [Compound 24K]: the “% activity” value (33 ng/mL) worked out at 78% and the “% activity” value (330 ng/mL) is recorded as 106%.
For `COc1cccc([C@@H](C)NCCCc2c(F)cccc2F)c1` [Compound 24L], the “% activity” value runs as follows: (33 ng/mL) 62%; (330 ng/mL) 105%.
Regarding `COc1cccc([C@@H](C)NCCCc2cc(F)cc(F)c2)c1` [Compound 24M], the “% activity” value (33 ng/mL) is 99%, the “% activity” value (330 ng/mL) was 134% and the “% activity” value (3300 ng/mL) stood at 132%.
As to `CC(NCCCc1ccccc1Cl)c1cccc(Cl)c1` (centres unmarked) [Compound 24O], the “% activity” value is, setting by setting: (33 ng/mL) 58%; (330 ng/mL) 114%; (3300 ng/mL) 137%.
In the same order, the values of `COc1cccc([C@@H](C)NC(C)CCc2cc(F)cc(F)c2)c1` (some centres unmarked) [Compound 24P] are 110%, 138% and 140%.
Turning to `COC(=O)c1cccc(C(C)NCc2ccc(OC)c(C)c2)c1` (centres unmarked) [Compound 24U], the “% activity” value (33 ng/mL) was determined as 78%, the “% activity” value (330 ng/mL) turned out to be 106% and the “% activity” value (3300 ng/mL) came to 106%.
Take `CCOC(=O)COc1cccc(C(C)NCc2ccc(OC)c(C)c2)c1` (centres unmarked) [Compound 24V]: the “% activity” value came to 71% (33 ng/mL), 98% (330 ng/mL) and 127% (3300 ng/mL).
In the same order, the values of `COc1ccc(CN[C@H](C)c2cccc3ccccc23)cc1Br` [Compound 24X] are 124%, 109% and 126%.
On to `CCOc1ccc(CN[C@H](C)c2cccc3ccccc23)cc1Cl` [Compound 24Y], for which the “% activity” value is, setting by setting: (33 ng/mL) 127%; (330 ng/mL) 120%; (3300 ng/mL) 119%.
In the same order, the values of `COc1ccc(CNC(C)c2cccc(SC)c2)cc1C` (centres unmarked) [Compound 24Z] are 135%, 138% and 138%.
`CCOc1ccc(CN[C@H](C)c2cccc3ccccc23)cc1C` [Compound 25A]: the “% activity” value came out at 114% (33 ng/mL), 120% (330 ng/mL) and 122% (3300 ng/mL).
For the compound `COc1cccc([C@@H](C)NCC=Cc2ccccc2)c1` [Compound 25E, (R)-N-(3-phenylprop-2-enyl)-1-(3-methoxyphenyl)ethylamine], the “% activity” value was found to be 122% (33 ng/mL), 129% (330 ng/mL) and 132% (3300 ng/mL).
On to `COc1cccc([C@@H](C)NCc2cccc3ccccc23)c1` [Compound 25F], for which the activity at […] was found to be 76% (33 ng/mL) and 85% (330 ng/mL).
For the compound `COc1cccc([C@@H](C)NCC(C)=Cc2ccccc2)c1` [Compound 25G, (R)-N-(2-methyl-3-phenylprop-2-enyl)-1-(3-methoxyphenyl)ethylamine], the “% activity” value is on record as 99% (33 ng/mL), 115% (330 ng/mL) and 130% (3300 ng/mL).
In the same order, the values of `COc1cccc([C@@H](C)NC[C@H](C)C=Cc2ccccc2)c1` [Compound 25H, (R,R)-N-(2-methyl-4-phenybut-3-enyl)-1-(3-methoxyphenyl)ethylamine] are 89%, 107% and 115%.
In the same order, the values of `COc1cccc([C@H](C)NC[C@H](C)C=Cc2ccccc2)c1` [Compound 25I, (S,R)-N-(2-methyl-4-phenybut-3-enyl)-1-(3-methoxyphenyl)ethylamine] are 114%, 113% and 119%.
For the compound `COc1cccc([C@@H](C)NCc2ccc3c(c2)OCO3)c1` [Compound 25J], the “% activity” value (33 ng/mL) is reported as 105%, the “% activity” value (330 ng/mL) is listed as 123% and the “% activity” value (3300 ng/mL) was 119%.
As to `COc1cccc([C@@H](C)NCc2ccc(OC)c(OC)c2)c1` [Compound 25K], the “% activity” value (33 ng/mL) is listed as 86%, the “% activity” value (330 ng/mL) came to 107% and the “% activity” value (3300 ng/mL) was 124%.
As to `C[C@@H](NCc1cccc2ccccc12)c1cccc2ccccc12` [Compound 25L], the “% activity” value (33 ng/mL) is 85%, the “% activity” value (330 ng/mL) is reported as 97% and the “% activity” value (3300 ng/mL) was 97%.
For `COc1cccc([C@@H](C)NCC(C)c2ccccc2)c1` (some centres unmarked) [Compound 25M], the “% activity” value stood at 79% (33 ng/mL), 100% (330 ng/mL) and 118% (3300 ng/mL).
On to `COc1cccc([C@@H](C)NCC(C)c2ccccc2)c1` (some centres unmarked) [Compound 25N], for which the “% activity” value runs as follows: (33 ng/mL) 46%; (330 ng/mL) 73%; (3300 ng/mL) 94%.
In the same order, the values of `COc1cccc([C@@H](C)NCc2ccc3c(c2)OCCO3)c1` [Compound 25O] are 96%, 115% and 126%.
On to `COc1cccc([C@@H](C)NC2Cc3ccccc3C2)c1` [Compound 25P], for which the “% activity” value was found to be 75% (33 ng/mL), 81% (330 ng/mL) and 90% (3300 ng/mL).
In the same order, the values of `COc1cccc([C@@H](C)NCCc2ccccc2)c1` [Compound 25Q] are 77%, 95% and 116%.
Regarding `COc1ccc([C@H](C)N[C@H](C)c2cccc3ccccc23)cc1C` [Compound 25U], the “% activity” value by setting is: (33 ng/mL) 95%; (330 ng/mL) 107%; (3300 ng/mL) 107%.
Turning to `COc1ccc([C@H](C)N[C@@H](C)c2cccc3ccccc23)cc1C` [Compound 25V], the “% activity” value by setting is: (33 ng/mL) 43%; (330 ng/mL) 59%; (3300 ng/mL) 89%.
In the same order, the values of `COc1ccc([C@@H](C)N[C@@H](C)c2cccc3ccccc23)cc1C` [Compound 25W] are 42%, 69% and 95%.
